Columns and labels:
[1] = tested on: watergrass, late; experiment: Test F flood (paddy) test; assay type: in vivo, Echinochloa oryzicola; conditions: 21 d, scale 0-100
Source text: Three plastic pots (ca. 16-cm diameter) per rate were partially filled with sterilized Tama silt loam soil comprising a 35:50:15 ratio of sand, silt and clay and 2.6% organic matter. Separate plantings for each of the three pots were as follows. Seeds from the U.S. of monochoria (Monochoria vaginalis), sedge, umbrella (small-flower umbrella sedge, Cyperus difformis), bulrush, […] bulrush, Scirpus juncoides), and […] (purple […] coccinea), were planted into one 16-cm pot for each rate. Seeds from the U.S. of flatsedge, rice (rice flatsedge, Cyperus iria), sprangletop, Brdd. (bearded sprangletop, Leptochloa fascicularis), one stand of 9 or 10 water seeded rice seedlings (Rice, W.S. Jap, Oryza sativa cv. 'Japonica-[…]' or Rice, W.S. Ind, 'Indica'), and two stands of 3 or 4 seedlings of rice, transplanted (transplanted rice, Oryza sativa cv. 'Japonica-[…]') were planted into one 16-cm pot for each rate. Seeds from the U.S. of barnyardgrass (Echinochloa crus-galli), […] (common […], Alisma plantago-aquatica), and watergrass, late (late watergrass, Echinochloa oryzicola) were planted into one 16-cm pot for each rate. Plantings were sequential so that crop and weed species were at the 2.0 to 2.5-leaf stage at time of treatment. Potted plants were grown in a greenhouse with day/night temperature settings of 30/27° C., and supplemental balanced lighting was provided to maintain a 16-h photoperiod. Test pots were maintained in the greenhouse until test completion. At time of treatment, test pots were flooded to 3 cm above the soil surface, treated by application of test compounds directly to the paddy water, and then maintained at that water depth for the duration of the test. Effects of treatments on rice and weeds were visually evaluated by comparison to untreated controls after 21 d. Plant response ratings, summarized in Table F, are based on a scale of 0 to 100 where 0 is no effect and 100 is complete control. A dash (-) response means no test result.

[2] = tested on: blackgrass; experiment: Test D pre-/postemergence herbicide test; assay type: in vivo, Alopecurus myosuroides; conditions: Preemergence; for Plant response rating, Blackgrass: scale 0 to 100 (0 no effect, 100 complete control)
Source text: (§1) Seeds of plant species selected from bluegrass (annual bluegrass, Poa annua), blackgrass (Alopecurus myosuroides), canarygrass (littleseed canarygrass, Phalaris minor), chickweed (common chickweed, Stellaria media), galium (catchweed bedstraw, Galium aparine), bromegrass, downy (downy bromegrass, Bromus tectorum), field poppy (Papaver rhoeas), field violet (Viola arvensis), foxtail, green (green foxtail, Setaria viridis), deadnettle (henbit deadnettle, Lamium amplexicaule), ryegrass, Italian (Italian ryegrass, Lolium multiflorum), kochia (Kochia scoparia), lambsquarters (Chenopodium album), oilseed rape (Brassica napus), pigweed (Amaranthus retroflexus), chamomile (scentless chamomile, Matricaria inodora), Russian thistle (Salsola kali), speedwell (bird's-eye speedwell, Veronica persica), barley, spring (spring barley, Hordeum vulgare), wheat, spring (spring wheat, Triticum aestivum), buckwheat, wild (wild buckwheat, Polygonum convolvulus), mustard, wild (wild mustard, Sinapis arvensis), oat, wild (wild oat, Avena fatua), radish, wild (wild radish, Raphanus raphanistrum), […]), barley, winter (winter barley, Hordeum vulgare), and wheat, winter (winter wheat, Triticum aestivum) were planted into a silt loam soil and treated preemergence with test chemicals formulated in a non-phytotoxic solvent mixture which included a surfactant. At the same time, these species were planted in pots containing Redi-Earth® planting medium (Scotts Company, 14111 Scottslawn Road, Marysville, Ohio 43041) comprising spaghnum peat moss, vermiculite, wetting agent and starter nutrients and treated with postemergence applications of the test chemicals formulated in the same manner. Plants ranged in height from 2 to 18 cm (1- to 4-leaf stage). Treated plants and controls were maintained in a controlled growth environment for 7 to 21 days after which time all species were compared to controls and visually evaluated. Plant response ratings, summarized in Table D, are based on a scale of 0 to 100 where 0 is no effect and 100 is complete control. A dash (-) response means no test result.

[3] = tested on: ryegrass, Italian; experiment: Test D pre-/postemergence herbicide test; assay type: in vivo, Lolium multiflorum; conditions: Preemergence, scale 0 to 100 (0 no effect, 100 complete control)
Source text: as §1

[4] = tested on: chickweed; experiment: Test D pre-/postemergence herbicide test; assay type: in vivo, Stellaria media; conditions: Preemergence; for Plant response rating, Chickweed: scale 0 to 100 (0 no effect, 100 complete control)
Source text: as §1

[5] = tested on: chamomile; experiment: Test D pre-/postemergence herbicide test; assay type: in vivo, Matricaria inodora; conditions: Preemergence; for Plant response rating, Chamomile: scale 0 to 100 (0 no effect, 100 complete control)
Outline: (§2)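 Test chemicals, formulated in a non-phytotoxic solvent mixture with surfactant, are sprayed preemergence onto seeds in silt loam and postemergence onto plants of 2–18 cm. Plants are held in a controlled growth environment for 7 to 21 days, then rated visually versus controls (0–100).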

[6] = tested on: bromegrass, downy; experiment: Test D pre-/postemergence herbicide test; assay type: in vivo, Bromus tectorum; conditions: Preemergence; for Plant response rating, Bromegrass, Downy: scale 0 to 100 (0 no effect, 100 complete control)
Outline: as §2

With `CN1CC(c2ccc(F)cc2)C(C(=O)Nc2cccc(F)c2F)C1=O` (stereo not shown) [Compound 271] the “Plant response rating, Watergrass, Late” value ([1]; 64 g ai/ha) was 45, the “Plant response rating, Watergrass, Late” value ([1]; 125 g ai/ha) was 75 and the “Plant response rating, Watergrass, Late” value ([1]; 250 g ai/ha) was 100. For the same molecule, the “Plant response rating, Watergrass, Late” value ([1]; 500 g ai/ha) was 100.

`O=C1NCC(c2ccc(C(F)(F)F)c(F)c2)C1C(=O)Nc1cccc(F)c1F` (racemic) [Compound 247] was tested, and the “Plant response rating, Watergrass, Late” value ([1]; 125 g ai/ha) was 65, the “Plant response rating, Watergrass, Late” value ([1]; 250 g ai/ha) was 65 and the “Plant response rating, Watergrass, Late” value ([1]; 500 g ai/ha) was 70. The “Plant response rating, Watergrass, Late” value ([1]; 1000 g ai/ha) was 85 and the “Plant response rating, Watergrass, Late” value ([1]; 2000 g ai/ha) was 90.

In the case of `O=C1NCC(c2cccc(C(F)(F)F)c2)C1C(=O)Nc1ccc(F)cc1F` (racemic) [Compound 207], the “Plant response rating, Blackgrass” value ([2]; 31 g ai/ha) is reported as 0, the “Plant response rating, Blackgrass” value ([2]; 62 g ai/ha) is reported as 5 and the “Plant response rating, Blackgrass” value ([2]; 125 g ai/ha) is reported as 20. For the same molecule, the Plant response rating ([2]; 250 g ai/ha, Blackgrass, scale 0 to 100) was 75, the “Plant response rating, Ryegrass, Italian” value ([3]; 31 g ai/ha) was 0 and the “Plant response rating, Ryegrass, Italian” value ([3]; 62 g ai/ha) was 5. The “Plant response rating, Ryegrass, Italian” value ([3]; 125 g ai/ha) was 5, the “Plant response rating, Ryegrass, Italian” value ([3]; 250 g ai/ha) was 15 and the “Plant response rating, Chickweed” value ([4]; 31 g ai/ha) was 60. The “Plant response rating, Chickweed” value ([4]; 62 g ai/ha) was 60, the “Plant response rating, Chickweed” value ([4]; 125 g ai/ha) was 70 and the Plant response rating ([4]; 250 g ai/ha, Chickweed, scale 0 to 100) was 100. For the same molecule, the “Plant response rating, Watergrass, Late” value ([1]; 125 g ai/ha) was 65, the “Plant response rating, Watergrass, Late” value ([1]; 250 g ai/ha) was 85 and the “Plant response rating, Watergrass, Late” value ([1]; 500 g ai/ha) was 90. For the same molecule, the “Plant response rating, Chamomile” value ([5]; 31 g ai/ha) was 75, the “Plant response rating, Chamomile” value ([5]; 62 g ai/ha) was 80 and the “Plant response rating, Chamomile” value ([5]; 125 g ai/ha) was 85. The Plant response rating ([5]; 250 g ai/ha, Chamomile, scale 0 to 100) was 85, the “Plant response rating, Bromegrass, Downy” value ([6]; 31 g ai/ha) was 0 and the “Plant response rating, Bromegrass, Downy” value ([6]; 62 g ai/ha) was 15. The “Plant response rating, Bromegrass, Downy” value ([6]; 125 g ai/ha) was 15 and the Plant response rating ([6]; 250 g ai/ha, Bromegrass, Downy, scale 0 to 100) was 15.

`O=C1NCC(c2cccc(C(F)(F)F)c2)C1C(=O)Nc1ccccc1F` (racemic) [Compound 3] was tested, and the “Plant response rating, Watergrass, Late” value ([1]; 250 g ai/ha) was 80 and the “Plant response rating, Watergrass, Late” value ([1]; 500 g ai/ha) was 85.

Source: patent US10294202B2, “Pyrrolidinones as herbicides” (FMC Corporation, priority 2013, dated 2019)
